Source: patent publication US11529359B2, “Use of GABAA receptor modulators for treatment of itch” (UNIVERSITÄT ZÜRICH, priority 2016, dated 2022)

Assays:
muscle relaxation = assay: horizontal wire test (muscle relaxation); assay type: in vivo, mice; settings: p.o., 60-120 min after administration
Procedure: (§1) Locomotor activity, muscle relaxant effects and motor coordination were assessed as described previously (Ralvenius, W. T., Benke, D., Acuña, M. A., Rudolph, U. & Zeilhofer, H. U. Nature Communications, 2015, 6). […] Motor coordination was assessed with a rotarod accelerating from 4 rpm to 40 rpm within 5 min. […] Fifteen measurements were taken per mouse. To assess muscle relaxation, mice were placed with their forepaws onto a metal horizontal wire placed 20 cm above ground.

chloroquine-induced itch = chloroquine-induced itch (cheek injection) in wild-type mice; assay type: in vivo, wild-type C57BL6/J mice; settings: p.o.; wild-type mice; 100 μg chloroquine
Procedure: (§2) Acute itch was assessed in mice that received intradermal microinjections of pruritogens or 0.9% saline into the right cheek, which had been shaved at least one day before the experiment. In two sets of experiments that addressed the contribution of GABAARs in primary and secondary pruritoceptors, pruritogens were injected in the right thigh (FIG. 17). Before injection, mice were acclimatized to a 15 cm diameter cylindrical enclosure for more than 30 min with cage bedding on the ground. Background white noise generated by a radio in the room at ambient volume was applied to prevent auditory distraction. A 30 gauge needle was inserted bevel-up and pushed 5 mm horizontally into the skin beyond the point of insertion, before injection of the pruritogen (in a total volume of 10 μl). No anesthesia was used. Correct injection was confirmed by the appearance of a slightly domed bulla upon injection. […] Videos were analyzed off-line. Scratching of the hind paw directed to the ipsilateral cheek was counted in bouts, with one scratching bout defined as an instance when the mouse lifted its paw to scratch until it returned the paw to the cage floor. In case of experiments in which the pruritogen was injected in the skin of the thigh, the time spent biting the injected skin area was counted in s/min as a measure of itch.

[1] = tested on: GABA-IPSCs in GRP neurons; assay: GABAergic IPSCs in GRP neurons, whole-cell recordings in spinal cord slices; assay type: cell-based, GRP::eGFP mice; settings: 1 μM; n=7
Procedure: Transverse spinal cord slices ([…]) were prepared from 20 to 29-day old GRP::eGFP mice of either sex as described previously (Dugue, G. P., et al. Neuron, 2009, 61, 126-139). Whole-cell patch clamp recordings were made at room temperature targeting eGFP positive neurons. During recordings, slices were continuously superfused at the rate of 1-2 ml/min with aSCF containing (in mM): 120 NaCl, 2.5 KCl, 1.25 NaH2PO4, 26 […], 5 HEPES, 1 MgCl2, 2 CaCl2) and 14.6 glucose (pH 7.4), equilibrated with 95% O2, 5% CO2. Recorded neurons were voltage clamped at −70 mV using an EPC 9 amplifier (HEKA Elektronic, Lambrecht, Germany) controlled with Patchmaster acquisition software. […] IPSCs were evoked by electrical stimulation (300 μs, 0.2-50 V) at 0.05 Hz using glass electrode filled with aCSF and placed 50-100 μm from the soma of the recorded cell. […] At the end of the recordings bicuculline (10 μM) was added to confirm the GABAergic nature of the recorded IPCSs. The weighted decay time constant (τw) was calculated from dual-exponential fits using the following equation: Tw=(τ1A1+τ2A2)/(A1+A2) where τ1 and τ2 are the fast and the slow decay time constants and A1 and A2 are the equivalent amplitude weighting factors (Labrakakis, C., Lorenzo, L. E., Bories, C., Ribeiro-da-Silva, A. & De Koninck, Y Mol Pain, 2009, 5, 24). […]

motor coordination = assay: rotarod assay (motor coordination); assay type: in vivo, mice; settings: p.o., 60 min after administration
Procedure: as §1

[2] = tested on: benzodiazepine binding site of GABAARs; assay: α-methyl 5-HT-induced itch in HRRR mice (α2, α3, α5 GABAARs benzodiazepine-insensitive); assay type: in vivo; settings: 1 mg/kg p.o.; 20 μg α-methyl 5-HT
Procedure: as §2

α2β3γ2 GABAARs = target: T1, α2β3γ2 GABAARs (Homo sapiens, UniProt P18507+P47869); assay: GABA-evoked currents, recombinant GABAARs in HEK293 cells (α2); assay type: cell-based; settings: HEK293 cells transiently transfected
T1 construct: expressed in transfected cells; host or cells: HEK293 cells (ATCC), transient transfection
T1 sequence (P47869 29-451): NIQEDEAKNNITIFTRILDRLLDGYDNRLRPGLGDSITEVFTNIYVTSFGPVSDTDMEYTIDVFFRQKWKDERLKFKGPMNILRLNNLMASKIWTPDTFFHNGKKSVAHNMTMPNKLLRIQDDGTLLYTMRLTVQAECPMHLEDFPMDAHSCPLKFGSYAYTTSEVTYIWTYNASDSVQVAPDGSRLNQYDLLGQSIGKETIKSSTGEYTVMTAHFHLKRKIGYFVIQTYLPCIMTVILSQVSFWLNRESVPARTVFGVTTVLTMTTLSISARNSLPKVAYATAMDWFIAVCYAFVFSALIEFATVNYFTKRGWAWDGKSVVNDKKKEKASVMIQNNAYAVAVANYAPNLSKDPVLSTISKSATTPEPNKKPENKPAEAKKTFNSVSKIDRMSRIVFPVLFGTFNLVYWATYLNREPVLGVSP
T1 sequence (P28472 26-473 partner): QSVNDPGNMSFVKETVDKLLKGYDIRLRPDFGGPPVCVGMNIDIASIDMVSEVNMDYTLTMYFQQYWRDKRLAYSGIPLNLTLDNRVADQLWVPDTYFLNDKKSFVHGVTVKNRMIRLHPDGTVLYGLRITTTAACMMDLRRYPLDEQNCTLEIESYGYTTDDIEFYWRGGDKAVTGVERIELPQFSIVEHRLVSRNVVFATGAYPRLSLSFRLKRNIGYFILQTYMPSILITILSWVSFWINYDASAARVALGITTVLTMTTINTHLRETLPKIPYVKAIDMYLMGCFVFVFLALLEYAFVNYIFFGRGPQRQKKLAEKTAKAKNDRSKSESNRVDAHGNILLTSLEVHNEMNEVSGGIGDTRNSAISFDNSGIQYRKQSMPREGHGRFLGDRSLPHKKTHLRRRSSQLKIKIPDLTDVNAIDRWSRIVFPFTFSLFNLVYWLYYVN
T1 sequence (P18507 40-467 limits assumed): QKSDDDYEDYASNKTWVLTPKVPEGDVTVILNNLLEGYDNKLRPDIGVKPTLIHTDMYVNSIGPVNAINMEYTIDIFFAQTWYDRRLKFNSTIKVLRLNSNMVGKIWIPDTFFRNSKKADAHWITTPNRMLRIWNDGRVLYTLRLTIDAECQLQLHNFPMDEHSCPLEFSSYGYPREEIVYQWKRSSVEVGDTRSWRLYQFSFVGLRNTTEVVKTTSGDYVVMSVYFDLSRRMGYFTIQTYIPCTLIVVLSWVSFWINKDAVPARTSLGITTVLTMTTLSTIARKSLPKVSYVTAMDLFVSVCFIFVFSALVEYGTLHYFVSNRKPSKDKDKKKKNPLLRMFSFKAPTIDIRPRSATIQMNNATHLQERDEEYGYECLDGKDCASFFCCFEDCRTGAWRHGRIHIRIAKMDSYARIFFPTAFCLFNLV
Text: HEK293 cells were transfected using lipofectamine LTX (Dugue, G. P., et al. Neuron, 2009, 61, 126-139). To ensure expression of the γ2 subunit (required for modulation of GABAARs by BDZs) in all recorded cells, the inventors transfected cells with a plasmid expressing the γ2 subunit plus eGFP from an IRES, and only selected eGFP-positive cells for recordings. The transfection mixture contained (in μg): 1 α1, 1 β2, 3 γ2/eGFP (used as a marker of successful transfection) or 1 αx, 1 β3, 3 γ2/eGFP in case of α2, α3, or α5GABAARs. Recordings were made 18-36 hrs after transfection. Whole-cell patch-clamp recordings of GABA-evoked currents were made at room temperature (20-24° C.) and at a holding potential of −60 mV. Recording electrodes were filled with solution containing (in mM): 120 CsCl, 10 EGTA, 10 HEPES (pH 7.40), 4 MgCl2, 0.5 GTP and 2 ATP. The external solution contained (in mM): 150 NaCl, 10 KCl, 2.0 CaCl2, 1.0 MgCl2, 10 HEPES (pH 7.4), and 10 glucose. GABA was applied to the recorded cell using a manually controlled pulse (4-6 s) of a low sub-saturating GABA concentration (ECS). ECs values of GABA were determined for all subunit combinations analyzed. […] Imax was determined as the average maximal current elicited by a concentration of 1 mM GABA. […]

[3] = tested on: brain membranes prepared from α1,2,3,5 H→R point mutated mice; assay type: binding, mice (RRRR); settings: 4 nM [3H]Ro 15-4513; increasing concentrations; n=4
Procedure: The supernatant was centrifuged for 20 min at 30,000 g and the resulting crude membrane pellet was washed once with buffer. […] Non-specific [^3H]Ro 15-4513 binding was assessed by addition of 10 μM flumazenil to the reaction. Incubation was stopped by rapid vacuum filtration using a semiautomatic cell harvester (Skatron Instruments) and washed filters were subjected to liquid scintillation counting.

CC(C)(O)c1cnn2c(-c3ccc(F)c(-c4c(F)cccc4C#N)c3)cnc2n1 [TPA023B, 6,2′-difluoro-5′-[3-(1-hydroxy-1-methylethyl)imidazo[1,2-b][1,2,4]triazin-7-yl]biphenyl-2-carbonitrile]
muscle relaxation in the horizontal wire test (muscle relaxation): did not cause muscle relaxation | doses at which chloroquine-induced scratching behavior was reduced (chloroquine-induced itch): 0.03 mg/kg | amplitude of GABA-IPSCs [1]: did not affect the amplitude | prolongation of the decay of GABA-IPSCs [1]: 43±10% | motor coordination in the rotarod assay (motor coordination): did not reduce motor coordination | antipruritic action in HRRR mice [2]: completely lost its antipruritic action | activity at the benzodiazepine binding site (potentiation of GABA-induced currents) (α2β3γ2 GABAARs): partial agonistic activity | displacement of [3H]Ro 15-4513 binding [3]: failed to displace
